Details: Liquid, Vibrating tube method

CCOC(=O)CCC(=O)OCC [diethyl butanedioate]
Details	mass density [kg/m3]
283.56 K, 100010 kPa	1102.48
283.57 K, 100 kPa	1049.61
283.57 K, 1000 kPa	1050.21
283.57 K, 3000 kPa	1051.56
283.57 K, 5000 kPa	1052.88
283.57 K, 10000 kPa	1056.11
283.57 K, 15000 kPa	1059.25
283.57 K, 30000 kPa	1068.16
283.57 K, 40000 kPa	1073.71
283.57 K, 50000 kPa	1079
283.57 K, 60000 kPa	1084.1
283.57 K, 70000 kPa	1089.01
283.57 K, 80000 kPa	1093.63
283.57 K, 90010 kPa	1098.12
283.58 K, 20000 kPa	1062.29
283.58 K, 25000 kPa	1065.25
293.49 K, 100 kPa	1039.78
293.49 K, 20000 kPa	1053.11
293.49 K, 25000 kPa	1056.23
293.49 K, 40000 kPa	1065.07
293.49 K, 60000 kPa	1075.9
293.5 K, 1000 kPa	1040.41
293.5 K, 3000 kPa	1041.81
293.5 K, 5000 kPa	1043.2
293.5 K, 10000 kPa	1046.6
293.5 K, 15000 kPa	1049.91
293.5 K, 30000 kPa	1059.25
293.5 K, 50000 kPa	1070.61
293.5 K, 70000 kPa	1080.89
293.5 K, 80000 kPa	1085.77
293.51 K, 90000 kPa	1090.39
293.51 K, 100000 kPa	1094.9
303.42 K, 100 kPa	1028.98
303.42 K, 1000 kPa	1029.62
303.42 K, 20000 kPa	1042.98
303.42 K, 25000 kPa	1046.26
303.42 K, 60000 kPa	1066.78
303.42 K, 70000 kPa	1072.05
303.42 K, 80000 kPa	1077.09
303.43 K, 3000 kPa	1031.12
303.43 K, 5000 kPa	1032.59
303.43 K, 15000 kPa	1039.61
303.43 K, 30000 kPa	1049.4
303.43 K, 40000 kPa	1055.5
303.43 K, 50000 kPa	1061.26
303.43 K, 90000 kPa	1081.92
303.43 K, 100000 kPa	1086.58
303.44 K, 10000 kPa	1036.15
313.31 K, 15000 kPa	1030.05
313.31 K, 50000 kPa	1052.81
313.32 K, 5000 kPa	1022.61
313.32 K, 10000 kPa	1026.44
313.32 K, 30000 kPa	1040.39
313.32 K, 40000 kPa	1046.78
313.33 K, 100 kPa	1018.75
313.33 K, 1000 kPa	1019.44
313.33 K, 3000 kPa	1021.07
313.33 K, 20000 kPa	1033.63
313.33 K, 25000 kPa	1037.06
313.33 K, 60000 kPa	1058.52
313.33 K, 70000 kPa	1064.01
313.33 K, 80000 kPa	1069.21
313.33 K, 90000 kPa	1074.2
313.33 K, 100000 kPa	1078.99
323.18 K, 100 kPa	1008.44
323.18 K, 1000 kPa	1009.19
323.18 K, 3000 kPa	1010.86
323.18 K, 10000 kPa	1016.52
323.18 K, 15000 kPa	1020.37
323.18 K, 20000 kPa	1024.08
323.18 K, 25000 kPa	1027.7
323.19 K, 5000 kPa	1012.5
323.19 K, 30000 kPa	1031.17
323.19 K, 40000 kPa	1037.8
323.19 K, 50000 kPa	1044.06
323.19 K, 60000 kPa	1050.01
323.19 K, 70000 kPa	1055.67
323.19 K, 80000 kPa	1061.06
323.19 K, 90000 kPa	1066.22
323.19 K, 100000 kPa	1071.19
333.1 K, 100 kPa	998.31
333.1 K, 1000 kPa	999.11
333.1 K, 3000 kPa	1000.91
333.1 K, 5000 kPa	1002.64
333.11 K, 10000 kPa	1006.85
333.11 K, 15000 kPa	1010.94
333.11 K, 20000 kPa	1014.85
333.11 K, 25000 kPa	1018.62
333.11 K, 30000 kPa	1022.27
333.11 K, 40000 kPa	1029.2
333.11 K, 50000 kPa	1035.72
333.11 K, 60000 kPa	1041.91
333.11 K, 70000 kPa	1047.69
333.11 K, 80000 kPa	1053.26
333.11 K, 90000 kPa	1058.57
333.11 K, 100000 kPa	1063.7
342.97 K, 100 kPa	987.87
342.97 K, 15000 kPa	1001.22
342.97 K, 20000 kPa	1005.3
342.97 K, 30000 kPa	1013.07
342.97 K, 40000 kPa	1020.32
342.97 K, 50000 kPa	1027.1
342.97 K, 70000 kPa	1039.64
342.97 K, 90000 kPa	1050.91
342.97 K, 100000 kPa	1056.19
342.98 K, 1000 kPa	988.73
342.98 K, 3000 kPa	990.63
342.98 K, 5000 kPa	992.45
342.98 K, 10000 kPa	996.91
342.98 K, 25000 kPa	1009.24
342.98 K, 60000 kPa	1033.53
342.98 K, 80000 kPa	1045.43
352.82 K, 100 kPa	977.64
352.82 K, 1000 kPa	978.58
352.82 K, 3000 kPa	980.59
352.82 K, 5000 kPa	982.53
352.82 K, 10000 kPa	987.26
352.82 K, 15000 kPa	991.79
352.83 K, 20000 kPa	996.08
352.83 K, 25000 kPa	1000.24
352.83 K, 30000 kPa	1004.25
352.83 K, 40000 kPa	1011.8
352.83 K, 50000 kPa	1018.87
352.83 K, 60000 kPa	1025.54
352.83 K, 70000 kPa	1031.82
352.83 K, 80000 kPa	1037.81
352.83 K, 90000 kPa	1043.47
352.83 K, 100010 kPa	1048.95
362.66 K, 100 kPa	967.3
362.66 K, 1000 kPa	968.28
362.66 K, 3000 kPa	970.41
362.66 K, 60000 kPa	1017.41
362.67 K, 5000 kPa	972.48
362.67 K, 10000 kPa	977.45
362.67 K, 15000 kPa	982.21
362.67 K, 20000 kPa	986.74
362.67 K, 25000 kPa	991.07
362.67 K, 30000 kPa	995.26
362.67 K, 40000 kPa	1003.16
362.67 K, 50000 kPa	1010.5
362.67 K, 70000 kPa	1023.98
362.67 K, 80000 kPa	1030.14
362.67 K, 90000 kPa	1036.01
362.67 K, 100000 kPa	1041.65

Source: the NIST ThermoML archive (doi:10.1021/acs.jced.5b00385)
